Experimental data from PMC5923142, “Selection and Characterization of Rupintrivir-Resistant Norwalk Virus Replicon Cells In Vitro” (Antimicrobial Agents and Chemotherapy, 2018).

Experiments:
[1] = tested on: Norwalk virus replicon; assay: Colony formation assay with HGT-NV cells after 12 days of treatment; assay type: cell-based, Human norovirus (HuNoV) GI; details: then 1 week G418 1.5 mg/ml without drug
Description: HGT-NV cells treated with rupintrivir or DMSO for 12 days in the absence of G418 were plated into 6-well plates in complete DMEM and maintained without rupintrivir in the presence of G418 (1.5 mg/ml). After 1 week of incubation, the colonies on the plate were stained with 0.1% toluidine blue and photographed.

[2] = tested on: Norwalk virus replicon; assay: Susceptibility of HGT-NV replicon cells passaged in parallel in DMSO (qRT-PCR); assay type: cell-based, Human norovirus (HuNoV) GI
Description: (§1) Given the potent effects of rupintrivir on HGT-NV cells, we sought to determine whether rupintrivir-resistant replicons could be generated. To this end, HGT-NV cells were treated with 5 μM rupintrivir for 12 days in the absence of G418 selection, followed by subsequent passages in the presence of G418 with increasing concentrations of rupintrivir for up to 45 days (Fig. 1D). This approach yielded three lineages of replicon cells which were resistant to 10, 15, and 20 μM rupintrivir. To identify the mutations conferring the resistance to rupintrivir, we isolated cell clones by limiting dilution using replicon cells surviving after 45 days of culture and then evaluated the rupintrivir sensitivity of the replicon cells. […] All clones treated with 10 μM rupintrivir had the I109V single amino acid substitution, while the A105V/I109V double amino acid substitution was observed only in clones treated with 15 and 20 μM rupintrivir. […]
(§2) The inhibitory effect of rupintrivir on HuNoV replication was assessed by quantification of the levels of GI NuNoV RNA and β-actin RNA as the reference gene. […] The real-time quantitative reverse transcription-PCR (qRT-PCR) assay was performed by using a One-Step Plus qRT-PCR kit according to the protocol of the manufacturer (Primer Design). […] Relative quantification was performed using the 2^−ΔΔCT threshold cycle (CT) method ([38]). […]

[3] = tested on: rupintrivir-resistant Norwalk virus replicon; assay: Susceptibility of rupintrivir-resistant replicon cells, all clones (qRT-PCR); assay type: cell-based, Human norovirus (HuNoV) GI; details: resistant clones vs DMSO-passaged cells
Description: as §1, §2

[4] = target: T1, GI I109V mutant protease (Norovirus, UniProt Q83883, I1209V); assay: Cell-based FRET assay, GI I109V protease; set-up: species or system norovirus GI.1 (M87661)
T1 construct: plasmids expressing norovirus protease from GI.1 (M87661); expressed in transfected cells; host or cells: HEK293T
T1 sequence (Q83883 1101-1281 I1209V): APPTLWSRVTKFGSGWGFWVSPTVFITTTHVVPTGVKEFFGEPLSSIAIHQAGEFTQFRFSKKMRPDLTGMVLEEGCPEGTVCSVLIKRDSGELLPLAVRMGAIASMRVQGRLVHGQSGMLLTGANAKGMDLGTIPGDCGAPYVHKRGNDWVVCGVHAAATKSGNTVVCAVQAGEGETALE
Description: The generation of plasmids expressing norovirus protease from GI.1 (M87661), GII.4 (DQ658413), or GV (DQ285629) norovirus and FRET assay constructs has been described previously ([18]). The plasmids carrying GI, GII, and GV proteases with the A105V, I109V, or A105V/I109V mutation were generated from the wild-type (WT) protease constructs described above by the QuikChange site-directed mutagenesis method. Mutant MNV genomes for reverse genetics were generated by two-step PCR mutagenesis of the WT MNV genome (pT7 MNV 3RZ) construct as described previously ([27]). The primers used for generation of the plasmids are listed in Tables S1 and S2 in the supplemental material.
The YFP/CFP ratio was used to determine FRET efficiency, as described previously ([18], [40]). Briefly, HEK293T cells were plated into black 96-well cell culture microplates (Greiner Bio-One) at a density of 5 × 10^4 cells/well in 100 μl of DMEM containing 10% fetal bovine serum with or without various concentrations of rupintrivir and then incubated for 4 h in a CO2 incubator at 37°C. […] The plates were then analyzed on a SpectraMax i3 instrument in fluorescence mode, with excitation set at 434 nm and the reading emissions set at 477 nm (CFP) and 527 nm (YFP). The background fluorescence from wells transfected with pcDNA3.1 was determined and subtracted. […]

[5] = tested on: HRV2 N165T; set-up: method as in PMID 17908951; details: serial passage of HRV2 for 62 days; cited from earlier work

## CCOC(=O)/C=C/[C@H](C[C@@H]1CCNC1=O)NC(=O)[C@@H](CC(=O)[C@@H](NC(=O)c1cc(C)on1)C(C)C)Cc1ccc(F)cc1 [rupintrivir, Rupintrivir]
[1]; 2.5 μM for 12 days
  colony formation: some colonies remained
[1]; 5 μM for 12 days
  colony formation: some colonies remained
[1]; 10 μM for 12 days
  colony formation: completely prevent colony formation
[2]; DMSO-passaged cells, relative to DMSO
  Fold change in sensitivity: 1.0
[2]; Norwalk virus, read-out: Mean EC50 ± SD
  EC50: 1300 ± 200 nM
[3]
  fold reduced sensitivity: 4- to 11 fold
[4]; HEK293T cells, GI NS1/2-NS3 FRET substrate
  IC50: 4000 ± 400 nM
[4]; vs GI WT protease
  fold increase in IC50: 3.1 fold
[5]
  fold reduced susceptibility: 2 fold
